Measurements: the supplement of paper PMC10307832

Key:
Experiment in all cases: relative viability (nuclei count vs DMSO), 5 days (fraction); higher = more cells survive
GSK-J4 + Bortezomib = compound: CCOC(=O)CCNc1cc(N2CCc3ccccc3CC2)nc(-c2ccccn2)n1 [GSK-J4] + CC(C)C[C@H](NC(=O)[C@H](Cc1ccccc1)NC(=O)c1cnccn1)B(O)O [Bortezomib] (partner 0.002 µM)
Procedure, shortened: (§1)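 Relative viability was taken as the ratio of nuclei in treated wells to nuclei in vehicle wells. Lung cancer cell lines in 1536-well plates received compounds by pin tool one day after seeding, either one drug alone or a fixed anchor-drug dose plus five library-drug doses (not always all listed) in √10 steps. Nuclei were counted on 4× images after 5 days of treatment, and values are medians of duplicate plates.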

GSK-J4 + Luminespib = compound: CCOC(=O)CCNc1cc(N2CCc3ccccc3CC2)nc(-c2ccccn2)n1 [GSK-J4] + CCNC(=O)c1noc(-c2cc(C(C)C)c(O)cc2O)c1-c1ccc(CN2CCOCC2)cc1 [Luminespib] (partner 0.01 µM)
Procedure, shortened: as §1

GSK-J4 + Pemetrexed = compound: CCOC(=O)CCNc1cc(N2CCc3ccccc3CC2)nc(-c2ccccn2)n1 [GSK-J4] + Nc1nc2[nH]cc(CCc3ccc(C(=O)N[C@@H](CCC(=O)O)C(=O)O)cc3)c2c(=O)[nH]1 [Pemetrexed] (partner 0.2 µM)
Procedure, shortened: as §1

AZ3146 + Tozasertib = compound: CN1CCC(CC1)OC2=CC(=C(C=C2)NC3=NC=C4C(=N3)N(C(=O)N4C)C5CCCC5)OC [AZ3146] + Cc1cc(Nc2cc(N3CCN(C)CC3)nc(Sc3ccc(NC(=O)C4CC4)cc3)n2)n[nH]1 [Tozasertib] (partner 0.1 µM)
Procedure, shortened: as §1

## UMC-11
GSK-J4 + Bortezomib; first compound 0.5 µM
  relative viability: 0.774
GSK-J4 + Bortezomib; first compound 1.581 µM
  relative viability: 0.263
GSK-J4 + Bortezomib; first compound 5 µM
  relative viability: 0.434
GSK-J4 + Bortezomib; first compound 15.81 µM
  relative viability: 0.759
GSK-J4 + Bortezomib; first compound 50 µM
  relative viability: 0.561
GSK-J4 + Luminespib; first compound 0.5 µM
  relative viability: 0.996
GSK-J4 + Luminespib; first compound 5 µM
  relative viability: 1.03
GSK-J4 + Luminespib; first compound 15.81 µM
  relative viability: 0.971
GSK-J4 + Luminespib; first compound 50 µM
  relative viability: 0.259
GSK-J4 + Pemetrexed; first compound 0.5 µM
  relative viability: 0.759
GSK-J4 + Pemetrexed; first compound 1.581 µM
  relative viability: 0.667
GSK-J4 + Pemetrexed; first compound 5 µM
  relative viability: 0.736
GSK-J4 + Pemetrexed; first compound 15.81 µM
  relative viability: 0.771
GSK-J4 + Pemetrexed; first compound 50 µM
  relative viability: 0.649
AZ3146 + Tozasertib; first compound 0.08 µM
  relative viability: 0.177
AZ3146 + Tozasertib; first compound 0.253 µM
  relative viability: 0.199
AZ3146 + Tozasertib; first compound 0.8 µM
  relative viability: 0.204
AZ3146 + Tozasertib; first compound 2.53 µM
  relative viability: 0.177
AZ3146 + Tozasertib; first compound 8 µM
  relative viability: 0.183
